Measurements: ChEMBL document CHEMBL5376020, “Synthesis and evaluation of WK-X-34 derivatives as P-glycoprotein (P-gp/ABCB1) inhibitors for reversing multidrug resistance” (RSC Med Chem, 2024)
Calls of active or inactive are those of the source. The calls are words filed in the database; no cut-off is given here.

Assays:
SW-620 [1] = assay: Reversal of doxorubicin-induced multidrug resistance in human SW620 cells measured after 48 hrs by CCK-8 method; format: functional, cell-based; details: SW-620, 48 h
[2] = Octanol/water partition coefficient, log P of the compound; format: physicochemical
SW620/AD300 [3] = assay: Reversal fold, ratio of Doxorubicin IC50 to test compound IC50 for reversal of doxorubicin-induced multi-drug resistance in human SW620/AD300 cells measured after 48 hrs by CCK-8 method; format: functional
SW620/AD300 [4] = assay: Reversal of doxorubicin-induced multidrug resistance in human SW620/AD300 cells measured after 48 hrs by CCK-8 method; format: functional, cell-based; details: SW620/AD300, 48 h
SW-620 [5] = assay: Reversal fold, ratio of Doxorubicin IC50 to test compound IC50 for reversal of doxorubicin-induced multi-drug resistance in human SW620 cells measured after 48 hrs by CCK-8 method; format: functional
SW620/AD300 [6] = assay: Cytotoxicity against human overexpressing P-gp SW620/AD300 cells assessed as cell mortality rate at 5 uM measured after 48 hrs by CCK-8 method relative to control; format: functional
[7] = target: ATP-dependent translocase ABCB1 (Homo sapiens, UniProt P08183); assay: Inhibition of P-gp efflux in human SW620/AD300 cells assessed as increase in accumulation of Rh123 by measuring fluorescence intensity at 5.0 uM incubated for 4 hrs followed by Rh123 addition measured after 30 mins by flow cytometric analysis; format: cell-based; details: sw620/ad300, 4.5 h
SW-620 [8] = assay: Cytotoxicity against human SW620 cells assessed as cell mortality rate at 5 uM measured after 48 hrs by CCK-8 method relative to control; format: functional
SW620/AD300 [9] = assay: Induction of doxorubicin induced apoptosis in human SW620/AD300 cells assessed as necrotic cells at 5 uM incubated for 48 hrs in presence of doxorubicin by annexin V-FITC and PI staining based flow cytometry analysis (reference value: 0.59%); format: functional
SW620/AD300 [10] = assay: Induction of doxorubicin induced apoptosis in human SW620/AD300 cells assessed as viable cells at 5 uM incubated for 48 hrs in presence of doxorubicin by annexin V-FITC and PI staining based flow cytometry analysis (reference value: 92.8%); format: functional; details: read-out: Activity
SW620/AD300 [11] = assay: Induction of doxorubicin induced apoptosis in human SW620/AD300 cells assessed as late apoptotic cells at 5 uM incubated for 48 hrs in presence of doxorubicin by annexin V-FITC and PI staining based flow cytometry analysis (reference value: 2.07%); format: functional
SW620/AD300 [12] = assay: Induction of doxorubicin induced apoptosis in human SW620/AD300 cells assessed as early apoptotic cells at 5 uM incubated for 48 hrs in presence of doxorubicin by annexin V-FITC and PI staining based flow cytometry analysis (reference value: 4.55%); format: functional
SW620/AD300 [13] = assay: Downregulation of P-gp expression level in human SW620/AD300 cells at 2 to 5 uM measured after 24 hrs by qPCR analysis; format: functional, cell-based; details: dose 2-5 µM
SW620/AD300 [14] = assay: Induction of doxorubicin induced apoptosis in human SW620/AD300 cells assessed as early apoptotic cells at 2.5 uM incubated for 48 hrs in presence of doxorubicin by annexin V-FITC and PI staining based flow cytometry analysis (reference value: 4.55%); format: functional
SW620/AD300 [15] = assay: Downregulation of P-gp expression level in human SW620/AD300 cells at 5 to 10 uM measured after 24 hrs by Western blot analysis; format: functional, cell-based; details: dose 5-10 µM
SW620/AD300 [16] = assay: Induction of doxorubicin induced apoptosis in human SW620/AD300 cells assessed as necrotic cells at 2.5 uM incubated for 48 hrs in presence of doxorubicin by annexin V-FITC and PI staining based flow cytometry analysis (reference value: 0.59%); format: functional
SW620/AD300 [17] = assay: Downregulation of P-gp expression level in human SW620/AD300 cells at upto 50 uM measured after 24 hrs by Western blot analysis; format: functional, cell-based
SW620/AD300 [18] = assay: Induction of doxorubicin induced apoptosis in human SW620/AD300 cells assessed as late apoptotic cells at 2.5 uM incubated for 48 hrs in presence of doxorubicin by annexin V-FITC and PI staining based flow cytometry analysis (reference value: 2.07%); format: functional
SW620/AD300 [19] = assay: Induction of doxorubicin induced apoptosis in human SW620/AD300 cells assessed as viable cells at 2.5 uM incubated for 48 hrs in presence of doxorubicin by annexin V-FITC and PI staining based flow cytometry analysis (reference value: 92.8%); format: functional; details: read-out: Activity

Sequence of ATP-dependent translocase ABCB1 (P08183 whole entry): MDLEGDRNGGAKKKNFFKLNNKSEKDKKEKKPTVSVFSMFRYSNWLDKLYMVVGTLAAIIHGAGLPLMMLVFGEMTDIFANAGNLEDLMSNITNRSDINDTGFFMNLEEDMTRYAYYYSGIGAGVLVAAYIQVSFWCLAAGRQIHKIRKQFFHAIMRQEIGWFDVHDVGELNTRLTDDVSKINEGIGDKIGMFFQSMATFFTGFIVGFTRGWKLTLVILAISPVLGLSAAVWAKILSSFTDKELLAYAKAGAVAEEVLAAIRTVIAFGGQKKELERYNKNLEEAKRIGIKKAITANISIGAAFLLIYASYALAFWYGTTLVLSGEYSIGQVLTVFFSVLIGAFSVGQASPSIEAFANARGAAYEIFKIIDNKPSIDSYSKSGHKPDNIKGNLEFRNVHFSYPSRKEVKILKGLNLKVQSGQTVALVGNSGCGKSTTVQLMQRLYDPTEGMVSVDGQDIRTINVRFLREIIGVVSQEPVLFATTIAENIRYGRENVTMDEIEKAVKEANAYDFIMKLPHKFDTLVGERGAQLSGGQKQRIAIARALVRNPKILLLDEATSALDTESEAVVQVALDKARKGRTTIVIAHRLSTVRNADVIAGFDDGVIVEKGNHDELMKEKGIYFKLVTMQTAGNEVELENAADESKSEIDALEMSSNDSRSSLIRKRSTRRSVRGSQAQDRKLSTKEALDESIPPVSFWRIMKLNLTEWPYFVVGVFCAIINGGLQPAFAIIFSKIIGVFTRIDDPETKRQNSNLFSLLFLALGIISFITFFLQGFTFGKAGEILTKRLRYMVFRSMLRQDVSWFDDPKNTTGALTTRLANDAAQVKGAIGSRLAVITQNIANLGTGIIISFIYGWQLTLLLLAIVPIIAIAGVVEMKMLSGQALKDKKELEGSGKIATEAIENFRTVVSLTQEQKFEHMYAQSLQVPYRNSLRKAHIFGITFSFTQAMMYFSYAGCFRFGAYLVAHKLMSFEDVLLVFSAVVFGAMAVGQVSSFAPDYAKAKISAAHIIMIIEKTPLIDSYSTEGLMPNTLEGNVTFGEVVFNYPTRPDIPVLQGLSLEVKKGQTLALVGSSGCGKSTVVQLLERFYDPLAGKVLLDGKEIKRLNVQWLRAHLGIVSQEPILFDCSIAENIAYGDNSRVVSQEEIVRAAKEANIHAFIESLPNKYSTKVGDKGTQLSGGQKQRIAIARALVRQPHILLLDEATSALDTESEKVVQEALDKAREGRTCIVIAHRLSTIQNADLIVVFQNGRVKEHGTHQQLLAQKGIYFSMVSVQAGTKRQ

| SMILES | IC50 (SW-620 [1]) | logP [2] | Ratio IC50 (SW620/AD300 [3]) | IC50 (SW620/AD300 [4]) | Ratio IC50 (SW-620 [5]) | mortality at 5 µM (SW620/AD300 [6]) | inhibition (INH) [7] | mortality at 5 µM (SW-620 [8]) | Activity (SW620/AD300 [9]) | viability at 5 µM (SW620/AD300 [10]) | Activity (SW620/AD300 [11]) | Activity (SW620/AD300 [12]) | Activity (SW620/AD300 [13]) | Activity (SW620/AD300 [14]) | Activity (SW620/AD300 [15]) | Activity (SW620/AD300 [16]) | Activity (SW620/AD300 [17]) | Activity (SW620/AD300 [18]) | viability at 2.5 µM (SW620/AD300 [19]) |
| --- | --- | --- | --- | --- | --- | --- | --- | --- | --- | --- | --- | --- | --- | --- | --- | --- | --- | --- | --- |
| COC(=O)c1ccc(C(=O)Nc2ccccc2C(=O)Nc2ccc(CCN3CCc4cc(OC)c(OC)cc4C3)cc2)cc1 | 136 nM | 5.77 | 10.4 | 1010 nM | 1.9 |  |  |  |  |  |  |  |  |  |  |  |  |  |  |
| COc1ccc(C(=O)Nc2ccccc2C(=O)Nc2ccc(CCN3CCc4cc(OC)c(OC)cc4C3)cc2)cc1OC | 63 nM | 5.85 | 45.9 | 223 nM | 4 | 9% | Active | 9% | 0.56% | 57.3% | 3.62% | 38.5% |  |  |  |  |  |  |  |
| COc1cc2c(cc1OC)CN(CCc1ccc(NC(=O)c3ccccc3NC(=O)c3ccccc3N)cc1)CC2 | 229 nM | 5.78 | 14.6 | 719 nM | 1.1 |  |  |  |  |  |  |  |  |  |  |  |  |  |  |
| COc1ccc(CCN(C)CCCC(C#N)(c2ccc(OC)c(OC)c2)C(C)C)cc1OC (stereo not given) [VERAPAMIL] | 142 nM |  |  |  |  |  |  |  |  |  |  |  |  |  |  |  |  |  |  |
| COc1cc2c(cc1OC)CN(CCc1ccc(NC(=O)c3ccccc3NC(=O)c3ccc(C(=O)O)cc3)cc1)CC2 | 376 nM | 3.16 | 1.4 | 7540 nM | 0.7 |  |  |  |  |  |  |  |  |  |  |  |  |  |  |
| COc1cc2c(cc1OC)CN(CCc1ccc(NC(=O)c3ccccc3NC(=O)c3ccc(N)cc3)cc1)CC2 | 173 nM | 5.23 | 15.9 | 663 nM | 1.5 |  |  |  |  |  |  |  |  |  |  |  |  |  |  |
| COc1cc2c(cc1OC)CN(CCc1ccc(NC(=O)c3ccccc3NC(=O)c3ccc(C(=O)NCCNC(=O)CC45CC6CC(CC(C6)C4)C5)cc3)cc1)CC2 | 138 nM | 7.9 | 13 | 807 nM | 1.8 | < 6% |  | < 6% |  |  |  |  |  |  |  |  |  |  |  |
| COc1cc2c(cc1OC)CN(CCc1ccc(NC(=O)c3ccccc3NC(=O)c3ccc(C(=O)N4CCN(C(=O)CC56CC7CC(CC(C7)C5)C6)CC4)cc3)cc1)CC2 | 137 nM | 8.04 | 78.6 | 134 nM | 1.9 | < 2% | Active | < 2% | 1.17% | 42.1% | 5.15% | 52.1% | inactive | 50.8% | inactive | 0.22% | inactive | 1.16% | 47.8% |
| COc1cc2c(cc1OC)CN(CCc1ccc(NC(=O)c3ccccc3NC(=O)CC34CC5CC(CC(C5)C3)C4)cc1)CC2 | 284 nM | 7.65 | 51.4 | 205 nM | 0.9 | < 2% | Active | < 2% | 1.13% | 70.2% | 3.93% | 24.7% | inactive | 17.7% | inactive | 0.29% | inactive | 3.15% | 78.9% |
| COc1cc2c(cc1OC)CN(CCc1ccc(NC(=O)c3ccccc3NC(=O)c3ccc(NC(=O)CC45CC6CC(CC(C6)C4)C5)cc3)cc1)CC2 | 489 nM | 8.48 | 21.1 | 498 nM | 0.5 | < 6% |  | < 6% |  |  |  |  |  |  |  |  |  |  |  |
| COc1cc2c(cc1OC)CN(CCc1ccc(NC(=O)c3ccccc3NC(=O)C34CC5CC(CC(C5)C3)C4)cc1)CC2 | 144 nM | 6.83 | 15.7 | 671 nM | 1.8 | < 2% | Active | < 2% | 0.29% | 59.2% | 4.45% | 36.1% | inactive | 22.7% | inactive | 0.08% | Active | 0.96% | 76.3% |
| COc1cccc2c1C(=O)c1c(O)c3c(c(O)c1C2=O)C[C@@](O)(C(=O)CO)C[C@@H]3O[C@H]1C[C@H](N)[C@H](O)[C@H](C)O1 [DOXORUBICIN] | 256 nM |  | 1 | 10500 nM | 1 |  |  |  |  |  |  |  |  |  |  |  |  |  |  |
| COc1cc2c(cc1OC)CN(CCc1ccc(NC(=O)c3ccccc3NC(=O)CCNC(=O)CC34CC5CC(CC(C5)C3)C4)cc1)CC2 | 342 nM | 6.89 | 27.7 | 379 nM | 0.7 | < 6% |  | < 6% |  |  |  |  |  |  |  |  |  |  |  |
